Legend:
Type in all cases: biochemical
[1] = target: T1, DNA polymerase I (Escherichia coli, UniProt P00582); experiment: DPE-PCR assay, ddCTP termination of purified DNA polymerase extension activity; details: 50 μM ddCTP substituted for dCTP in the extension reaction mix; 37° C., 20 minutes
T1 construct: purchased New England Biolabs MO209
Description: DNA Pol I (NEB cat# MO209L), Klenow (NEB cat# MO210S) and Klenow exo(−) (NEB cat# MO212S) were diluted to the indicated U/μL stock in sterile T.E. pH 8.0. To begin, 2 μL of DNA polymerase stock at each concentration were placed into a 50 μL DNA polymerase extension reaction mixture containing the following components: 50 μM dNTP, 20 mM Tris pH 8.0, 10 mM Ammonium sulfate, 10 mM Potassium chloride, 2 mM Magnesium sulfate, 1% BSA, 0.1% Triton X-100, 0.1% Tween 20, and 0.001 μM pre-annealed DNA substrate (described above. Two micro-liters of T.E. (without DNA polymerase) was routinely added to an additional tube containing complete DNA polymerase extension reaction mixture and is referred to as a “No Input Control” (NIC). Reactions containing DNA polymerase (or No Input Controls) were vortexed briefly and placed at 37° C. for 20 minutes. After 20 minutes, 3 μL of each reactions containing purified DNA polymerase were immediately placed into a qPCR reaction (see below for qPCR conditions).
DNA polymerase extension reactions were prepared as described above with a 50 μM [dATP, dGTP, dTTP] mixture supplemented with either 50 μM dCTP or 50 μM ddCTP (Affymetrix #77332.) 50 μL DNA polymerase extension reactions with a 50 μM [dATP, dGTP, dTTP] mixture, supplemented with either dCTP or ddCTP, were spiked with 2 μL of a 1×10^−9 U/μL stock of DNA polymerase I (New England Biolabs # MO209). […]

[2] = system: E. coli-derived DNA polymerase activity; experiment: Bead lysis-coupled DPE-PCR, ddCTP substitution, E. coli lysate; details: 50 μM ddCTP substituted for dCTP, compared to standard reaction mix; crude bead mill lysate
Description: (§1) FIG. 5 illustrates that detection of bacteria by DPE-PCR is blocked by ddCTP. 5 μL of E. coli suspension were added to bead lysis-coupled DNA polymerase assays comprised of a dNTP mix containing either 50 μM dCTP or 50 μM ddCTP. DPE-PCR curves representing E. coli-derived DNA polymerase activity is presented. Plots were generated using the average qPCR Ct values from triplicate reactions at the indicated conditions. ddCTP termination and dCTP rescue experiments were performed for S. aureus exactly as described above for E. coli.
(§2) S. aureus and E. coli cultures were grown to an OD600 of 1.0±0.2 (approximately 1×10^9 cfu/mL.) For each organism, 1 mL of culture was pelleted and washed three times in T.E. Bacterial suspensions were serially diluted in T.E., and 5 μL of each stock were added to bead mill lysis tubes containing 50 μL DNA polymerase extension reaction mixture (see above for composition). A titration curve of 1×10^5 to […] cfu/reaction was performed in triplicate for each organism, including triplicate reactions without bacterial suspension.
(§3) After the addition of 5 μL bacterial stock, reaction tubes were bead milled for 6 min. at 2800 rpm using a digital Vortex Genie equipped with a disrupter head (Scientific Industries). Immediately after disruption, sample tubes were placed at 37° C. for 20 minutes. […]

[3] = system: S. aureus DNA polymerase extension activity; experiment: Bead lysis-coupled DPE-PCR, ddCTP substitution, S. aureus lysate; details: 50 μM ddCTP substituted for dCTP, compared to standard reaction mix; crude bead mill lysate
Description: as §1, §2, §3

T1 sequence (P00582 whole entry): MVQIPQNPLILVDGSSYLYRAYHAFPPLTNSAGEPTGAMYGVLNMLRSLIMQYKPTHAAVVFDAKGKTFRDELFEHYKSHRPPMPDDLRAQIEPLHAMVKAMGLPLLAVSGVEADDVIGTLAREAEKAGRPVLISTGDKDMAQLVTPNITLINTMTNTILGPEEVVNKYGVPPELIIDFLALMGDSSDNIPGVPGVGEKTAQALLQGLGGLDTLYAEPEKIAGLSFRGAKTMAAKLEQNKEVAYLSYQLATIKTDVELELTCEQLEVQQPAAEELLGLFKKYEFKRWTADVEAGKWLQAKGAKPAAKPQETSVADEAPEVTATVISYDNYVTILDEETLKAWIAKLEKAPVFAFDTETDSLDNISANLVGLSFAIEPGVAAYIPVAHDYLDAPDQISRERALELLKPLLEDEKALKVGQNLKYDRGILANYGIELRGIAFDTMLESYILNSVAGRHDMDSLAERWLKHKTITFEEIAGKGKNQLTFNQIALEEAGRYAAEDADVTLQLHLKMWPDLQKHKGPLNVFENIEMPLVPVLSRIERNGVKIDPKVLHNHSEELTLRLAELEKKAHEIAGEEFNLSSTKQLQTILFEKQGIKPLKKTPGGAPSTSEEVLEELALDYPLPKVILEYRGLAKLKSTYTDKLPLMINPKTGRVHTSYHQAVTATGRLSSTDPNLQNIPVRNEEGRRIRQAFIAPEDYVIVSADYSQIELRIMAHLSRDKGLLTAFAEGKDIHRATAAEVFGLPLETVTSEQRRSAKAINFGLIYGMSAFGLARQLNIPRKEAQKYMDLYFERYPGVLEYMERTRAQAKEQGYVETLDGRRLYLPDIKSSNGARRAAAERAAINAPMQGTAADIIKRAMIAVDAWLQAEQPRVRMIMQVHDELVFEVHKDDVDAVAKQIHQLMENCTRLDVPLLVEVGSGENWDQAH

Nc1ccn([C@H]2CC[C@@H](COP(=O)(O)OP(=O)(O)OP(=O)(O)O)O2)c(=O)n1 [ddCTP, 2′,3′-Dideoxycytidine-5′-Triphosphate]
DPE-PCR assay signal generated by DNA polymerase I [1]: eliminates signal
DPE-PCR signal derived from E. coli cfu spikes [2]: blocked the generation of signal
DPE-PCR signal derived from S. aureus cfu spikes [3]: blocked the generation of signal

Reference: US20160083776A1, “Methods for Measuring Polymerase Activity Useful for Sensitive, Quantitative Measurements of Any Polymerase Extension Activity and for Determining the Presence of Viable Cells” (Zeus Scientific, Inc., priority 2012, published 2016)
